Earlier results, collected in paper PMC3935482 (Clinical cancer research : an official journal of the …, 2013).
Like-named read-outs stand apart in the source and are kept apart here.

Tests used:
[1] = test system: patients
[2] = oral rapamycin and IV temsirolimus

Half-life (given by weekly IV infusion) [h] | Cmax of rapamycin (5 mg oral rapamycin) [ng/mL] | Cmax of rapamycin (9 mg oral rapamycin) [ng/mL] | Cmax of rapamycin (60 mg oral rapamycin) [ng/mL] | Half-life [2] [h] | Grade 3 or 4 depression ([1]; phase 2 study, 250 mg dose level) [%] | SMILES | Patients with dermatologic toxicities such as rash ([1]; patients receiving temsirolimus)
45 to 52 | – | – | – | – | – | CO[C@H]1C[C@@H]2CC[C@@H](C)[C@@](O)(O2)C(=O)C(=O)N2CCCC[C@H]2C(=O)O[C@H]([C@H](C)C[C@@H]2CC[C@@H](OP(C)(C)=O)[C@H](OC)C2)CC(=O)[C@H](C)/C=C(\C)[C@@H](O)[C@@H](OC)C(=O)[C@H](C)C[C@H](C)/C=C/C=C/C=C/1C [deferolimus] | –
– | 15.5 | 37.9 | 57.72 | 61 to 69 | – | CO[C@H]1C[C@@H]2CC[C@@H](C)[C@@](O)(O2)C(=O)C(=O)N2CCCC[C@H]2C(=O)O[C@H]([C@H](C)C[C@@H]2CC[C@@H](O)[C@H](OC)C2)CC(=O)[C@H](C)/C=C(\C)[C@@H](O)[C@@H](OC)C(=O)[C@H](C)C[C@H](C)/C=C/C=C/C=C/1C [rapamycin] | –
– | – | – | – | 61 to 69 | 10 | CO[C@H]1C[C@@H]2CC[C@@H](C)[C@@](O)(O2)C(=O)C(=O)N2CCCC[C@H]2C(=O)O[C@H]([C@H](C)C[C@@H]2CC[C@@H](OC(=O)C(C)(CO)CO)[C@H](OC)C2)CC(=O)[C@H](C)/C=C(\C)[C@@H](O)[C@@H](OC)C(=O)[C@H](C)C[C@H](C)/C=C/C=C/C=C/1C [temsirolimus] | up to 50%
